Assay results published in US12343350B2, “Istaroxime-containing intravenous formulation for the treatment of acute heart failure (AHF)” (Windtree Therapeutics, Inc., priority 2019, dated 2025).
Like-named read-outs stand apart in the source and are kept apart here. Marks after values point to notes of the source that are not given here.

Legend:
SERCA2a [1] = target: T1, SERCA2a (Canis lupus familiaris (Dog) (Canis familiaris), UniProt O46674); assay: SERCA2a ATPase activity in SR preparations from failing dog; assay type: biochemical; settings: data not shown
T1 sequence (O46674 whole entry): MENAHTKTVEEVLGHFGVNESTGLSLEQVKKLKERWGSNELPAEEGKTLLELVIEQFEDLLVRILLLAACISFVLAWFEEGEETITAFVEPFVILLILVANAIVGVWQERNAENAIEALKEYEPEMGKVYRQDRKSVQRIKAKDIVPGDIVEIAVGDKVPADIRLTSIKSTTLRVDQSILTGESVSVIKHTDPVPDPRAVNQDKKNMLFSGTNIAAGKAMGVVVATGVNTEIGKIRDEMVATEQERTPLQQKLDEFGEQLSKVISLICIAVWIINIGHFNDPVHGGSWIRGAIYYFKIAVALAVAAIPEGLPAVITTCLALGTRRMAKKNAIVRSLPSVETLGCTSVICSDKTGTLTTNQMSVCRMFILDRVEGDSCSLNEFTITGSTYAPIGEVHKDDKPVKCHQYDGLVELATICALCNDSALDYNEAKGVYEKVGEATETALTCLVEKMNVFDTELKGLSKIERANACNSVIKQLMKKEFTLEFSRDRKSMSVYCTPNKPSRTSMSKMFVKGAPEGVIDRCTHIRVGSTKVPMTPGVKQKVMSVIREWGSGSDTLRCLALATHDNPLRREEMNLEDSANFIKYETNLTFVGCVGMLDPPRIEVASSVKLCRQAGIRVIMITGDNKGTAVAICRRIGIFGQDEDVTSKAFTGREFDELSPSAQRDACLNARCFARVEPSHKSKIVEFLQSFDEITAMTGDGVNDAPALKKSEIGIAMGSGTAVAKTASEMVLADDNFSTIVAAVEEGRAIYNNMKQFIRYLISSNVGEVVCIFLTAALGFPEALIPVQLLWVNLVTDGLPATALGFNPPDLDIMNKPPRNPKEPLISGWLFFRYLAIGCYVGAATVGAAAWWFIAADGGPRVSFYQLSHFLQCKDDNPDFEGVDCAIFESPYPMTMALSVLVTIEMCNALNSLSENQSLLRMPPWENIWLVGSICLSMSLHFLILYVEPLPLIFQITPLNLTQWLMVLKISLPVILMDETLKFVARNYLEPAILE
Procedure: Male beagle dogs were used for obtaining cardiac tissues for SERCA2a-enriched sarcoplasmic reticulum preparations. Healthy dogs were utilized for obtaining the data in Table 3. Chronic heart failure was induced in dogs by multiple intracoronary microembolizations with polystyrene latex microspheres ([…], Polysciences, Warrington, PA, USA) as described previously (see Sabbah H N et al., Am J Physiol. 1991; 260:H1379-84). The experiments were conducted in the General Pharmacology Department of Sigma-Tau, Rome, Italy. […]
SERCA2a activity was measured in vitro as ^32P-ATP hydrolysis at different Ca2^+ concentrations (100 to 3000 nM) in the absence and presence of the tested compounds as described previously (see Micheletti R. et al., Am J Card 2007; 99:24A-32A). […] The ATP hydrolysis was continued for 15 min at 37° C. and was stopped by acidification with 100 μl of 20% v/v ice-cold perchloric acid. ^32P was separated by centrifugation with activated charcoal (Norit A, SERVA) and the radioactivity was measured. […]
Dose-response curves were fitted by using a sigmoidal curve fitting software and the maximal velocity (Vmax) activity and the Kd Ca2^+ were calculated (Synergy Software KaleidaGraph 3.6). […]

dog renal Na,K-ATPase = dog renal Na,K-ATPase (Canis lupus familiaris (Dog) (Canis familiaris), UniProt P50997); assay: Inhibition of dog renal Na,K-ATPase activity (32P-ATP); assay type: biochemical
Procedure: Kidneys were sliced and the outer medulla was dissected, pooled and suspended (1 g/10 ml) in a sucrose-histidine solution, containing 250 mM sucrose, 30 mM histidine and 5 mM EDTA, pH 7.2 and homogenized. The homogenate was centrifuged at 6.000 g for 15 min, the supernatant was decanted and centrifuged at 48.000 g for 30 min. The pellet was suspended in the sucrose-histidine buffer and incubated for 20 min with a sodium-dodecyl-sulphate (SDS) solution dissolved in a gradient buffer, containing 25 mM imidazole and 1 mM EDTA, pH 7.5. […] The pellet was suspended in the gradient buffer.
Increasing concentrations of the standard ouabain, or tested compound, were incubated with 0.3 μg of purified dog kidney enzyme for 10 min at 37° C. in 120 μl final volume of a medium containing 140 mM NaCl, 3 mM MgCl2, 50 mM Hepes-Tris, 3 mM ATP at a pH 7.5. Then, 10 μl of incubation solution containing 10 mM KCl and 20 nCi of ^32P-ATP (3-10 Ci/mmol, Perkin Elmer) was added, and the reaction was continued for 15 min at 37° C. The reaction was then stopped by acidification with 20% v/v ice-cold perchloric acid. ^32P was separated by centrifugation with activated Charcoal (Norit A, Serva) and the radioactivity was measured. The inhibitory activity was expressed as percent of the control samples carried out in the absence of ouabain or tested compound.

[2] = Plasma levels of istaroxime and its metabolites in patients (HPLC-MS/MS); assay type: in vivo, human; settings: for plasma concentration course during the infusion period: 24 h infusion of 0.5 or 1 μg/kg/min istaroxime, Caucasian and Chinese patients
Procedure: The quantitative determination of PST 2744 and its metabolite PST 2915 in human plasma was determined by the HPLC-MS/MS method that included a mobile phase of 70:30 acetonitrile/water, 1 mL/L 1M formic acid, and 1 mL/L 5M ammonium acetate. The flow rate was 1 mL/min, and the chromatographic separation was by reversed phase HPLC (Column: SYNERGI 4μ POLAR-RP80A 150×4.6 mm equipped with a Security-guard Phenomenex Polar-RP 4×3 mm). Detection was performed by MS/MS, and the acquisition mode was Multiple Reaction Monitoring (MRM).
The quantitative determination of istaroxime metabolies PST 2922 and PST 3093 in human plasma was also measured by the HPLC-MS/MS method. In this case, the mobile phase was 50:50 H2 O/CH3 CN (v/v) and 500 μL/L 98-100% HCOOH. The flow rate was 1 mL/min and chromatographic separation was done by reversed-phase HPLC (Column: Phenomenex Phenyl hexyl, 150×4.6 mm, equipped with a Phenomenex phenyl propyl guard-cartridge) under isocratic conditions. Detection was performed by MS/MS (376.0→282.0 amu for PST2922, 378.0→284.0 amu for PST 3093 and 362.0→268.0 amu for PST 3418, IS).

[3] = Acute toxicity (LD50) in mouse; assay type: in vivo; settings: Albino Swiss CD-1, in vivo, single administration
Procedure: Acute toxicity has been determined in the mouse (Albino Swiss CD-1, body weight 30 g). Mice were orally treated, or intravenously injected, with single administration of increasing doses of the test substance to identify the dose causing 50% mortality. Mortality occurred within 30 min after the administration and survival after 24 h. The acute toxicity (LD50) was then assessed.
The acute toxicity of the tested compound PST 3093 was determined in the mouse (Albino Swiss CD-1, body weight 30 g). Compound PST 3093 was orally administered or intravenously injected at increasing doses to identify the dose causing 50% mortality. Mortality occurred within 30 min after the administration and survival after 24 h.

SERCA2a [4] = target: T1, SERCA2a; assay: SERCA2a ATPase activity in heart-derived SR microsomes from normal dog; assay type: biochemical; settings: for % increase vs control (Vmax) / Vmax: normal dog SR microsomes; for Vmax: mean ± SD
Procedure: Male beagle dogs were used for obtaining cardiac tissues for SERCA2a-enriched sarcoplasmic reticulum preparations. Healthy dogs were utilized for obtaining the data in Table 3. Chronic heart failure was induced in dogs by multiple intracoronary microembolizations with polystyrene latex microspheres ([…], Polysciences, Warrington, PA, USA) as described previously (see Sabbah H N et al., Am J Physiol. 1991; 260:H1379-84). The experiments were conducted in the General Pharmacology Department of Sigma-Tau, Rome, Italy.
Left ventricle tissues were dissected, homogenized in 4 volumes of 10 mM NaHCO3 (pH 7), 1 mM PMSF, 10 μg/ml Aprotinin and Leupeptin and centrifuged at 12.000 g for 15 minutes, as described in Nediani C. et al. (J Biol Chem. 1996; 271:19066-73). Supernatants were filtered and centrifuged at 100.000 g for 30 min. Contractile proteins were extracted by suspending the pellets with 0.6 M KCl, 30 mM Histidine, pH 7 and further centrifugation at 100.000 g for 30 min. Final pellets were reconstituted with 0.3 M Sucrose, 30 mM Histidine, pH 7.
SERCA2a activity was measured in vitro as ^32P-ATP hydrolysis at different Ca2^+ concentrations (100 to 3000 nM) in the absence and presence of the tested compounds as described previously (see Micheletti R. et al., Am J Card 2007; 99:24A-32A). Increasing concentrations of each compound (from 0.05 to 300 nM) were pre-incubated with 2 μg of microsomes for 5 min at 4° C. in 80 μl of a solution containing 100 mM KCl, 5 mM MgCl2, 1 μM A23187, 20 mM Tris, pH 7.5. Then, 20 μl of 5 mM Tris-ATP containing 50 nCi of ^32P-ATP (3-10 Ci/mmol, Perkin Elmer) was added. The ATP hydrolysis was continued for 15 min at 37° C. and was stopped by acidification with 100 μl of 20% v/v ice-cold perchloric acid. ^32P was separated by centrifugation with activated charcoal (Norit A, SERVA) and the radioactivity was measured. SERCA2a-dependent activity was identified as the portion of total hydrolytic activity inhibited by 10 μM cyclopiazonic acid (see Seidler N W. et al., J Biol Chem. 1989; 264:17816-23).
Dose-response curves were fitted by using a sigmoidal curve fitting software and the maximal velocity (Vmax) activity and the Kd Ca2^+ were calculated (Synergy Software KaleidaGraph 3.6).
The compounds disclosed herein were tested on SERCA2a ATPase activity prepared from normal and failing dogs in a range of concentrations from […]. The effect has been expressed as % increase of the Vmax activity of a control sample run in the absence of compound. Data are mean & SD, where n indicates the number of experiments.

Row | SMILES | SERCA2a activation (SERCA2a [1]) | IC50 (dog renal Na,K-ATPase; purified dog kidney enzyme, 37° C., read-out: IC50, inhibition of dog renal Na,K-ATPase) | plasma concentration course during the infusion period [2] | plasma levels ([2]; at 48 hours) | plasmatic level ([2]; following time points, whole duration of the infusion) | concentration at 3 h ([2]; human, plasma, intravenous, at 3 hour time point of infusion, read-out: plasmatic level) | LD50 at 24 h ([3]; iv) | LD50 at 24 h ([3]; os (oral)) | % increase vs control (Vmax) (SERCA2a [4]; 0.1 nM compound) | Vmax (SERCA2a [4]; 0.1 nM compound) | % increase vs control (Vmax) (SERCA2a [4]; 10 nM compound) | Vmax (SERCA2a [4]; 10 nM compound) | SERCA2a activity stimulation (SERCA2a [4]; normal dog SR vesicles, 0.1 nM and 10 nM) | IC50 (dog renal Na,K-ATPase) | average plasma level ([2]; at 48 hours, 1 μg/kg/min istaroxime infusion) | average plasma level ([2]; at 48 hours, Caucasian patients, 0.5 μg/kg/min istaroxime infusion) | average plasma level ([2]; at 48 hours, Chinese patients, 0.5 μg/kg/min istaroxime infusion) | average plasma concentration ([2]; at 70 hours, or 46 hours post-infusion) | average plasma concentration ([2]; by the end of the 24 h istaroxime infusion period (0.5 or 1 μg/kg/min))
1 | C[C@]12CCC(=NOCCN)C[C@@H]1C(=O)C[C@@H]1[C@@H]2CC[C@]2(C)C(=O)CC[C@@H]12 [Istaroxime, (3Z,5a)-3-[(2-aminoethoxy)imino]androstane-6,17-dione] | particularly evident | 140 nM | remain relatively constant | not detectable | about 8 ng/ml | ~10 ng/mL | 29 to 32 mg/kg | 200 mg/kg | 14* % | 1.423 ± 0.123 μmol/min/mg prot | 20** % | 1.505 ± 0.111 μmol/min/mg prot | significantly stimulated | – | – | – | – | – | –
2 | C[C@]12CCC(=NOCC(=O)O)CC1[C@H](O)CC1C2CC[C@]2(C)C(=O)CCC12 (stereo partly drawn) [PST 3093, (E,Z)-[(6-beta-hydroxy-17-oxoandrostan-3-ylidene)amino]oxyacetic acid] | – | – | continue to accumulate | – | – | – | > 250 mg/kg | > 200 mg/kg | 25** % | – | 19** % | – | – | > 100000 nM | about 21.2 ng/ml | about 25.02 ng/ml | about 12.5 ng/ml | exceeding 10 ng/mL | exceeding 60 ng/mL
